Reference: paper PMC1198236, “β-adrenergic receptor activation in immortalized human urothelial cells stimulates inflammatory responses by PKA-independent mechanisms” (Cell communication and signaling : CCS, 2005)

Biological target: β-adrenergic receptor (β-AR; subtype not determined)

SMILES: CC(C)(C)NC[C@H](O)COc1cccc2[nH]c(C#N)c(I)c12 [125I-CYP, (-)3-[125I]iodocyanopindolol]
- Kd: 0.0324 ± 0.0011 nM
